Data taken from ChEMBL document CHEMBL3046417 (2009).
Calls of active or inactive are those of the source. The calls are words filed in the database; no cut-off is given here.

Key:
Cnaphalocrocis medinalis [1] = assay: Reduction of larval weight gain in third-instar of Cnaphalocrocis medinalis in IR20 rice plant leaf at 6 ppm after 25 days; format: functional
Cnaphalocrocis medinalis [2] = assay: Reduction of larval normal weight gain time in third-instar of Cnaphalocrocis medinalis in IR20 rice plant leaf at 12 ppm after 25 days (reference value: 23.5 +/- 0.56 days); format: functional
Cnaphalocrocis medinalis [3] = assay: Antifeedant activity against fourth-instar of Cnaphalocrocis medinalis in IR20 rice plant leaf at 6 ppm after 4 days; format: functional
Cnaphalocrocis medinalis [4] = assay: Antifeedant activity against fourth-instar of Cnaphalocrocis medinalis in IR20 rice plant leaf at 1.5 to 3 ppm after 4 days; format: functional, organism-based
Cnaphalocrocis medinalis [5] = assay: Reduction of larval normal weight gain time in third-instar of Cnaphalocrocis medinalis in IR20 rice plant leaf at 3 ppm after 25 days (reference value: 23.5 +/- 0.56 days); format: functional
Cnaphalocrocis medinalis [6] = assay: Reduction of egg fertility in third-instar of Cnaphalocrocis medinalis in IR20 rice plant leaf assessed as oviposition deterrence index at 6 to 12 ppm; format: functional, organism-based
Cnaphalocrocis medinalis [7] = assay: Reduction of fecundity in third-instar of Cnaphalocrocis medinalis in IR20 rice plant leaf at 3 ppm relative to control; format: functional; parameters: scale not given: the % may be the effect or the level left
Cnaphalocrocis medinalis [8] = assay: Reduction of larval weight gain in third-instar of Cnaphalocrocis medinalis in IR20 rice plant leaf at 3 ppm after 48 hr (reference value: 23.7 mg); format: functional
Cnaphalocrocis medinalis [9] = assay: Antifeedant activity against fourth-instar of Cnaphalocrocis medinalis in IR20 rice plant leaf assessed as leaf scraped at 12 ppm after 48 hr; format: functional, organism-based
Cnaphalocrocis medinalis [10] = assay: Reduction of fecundity in third-instar of Cnaphalocrocis medinalis in IR20 rice plant leaf at 25 ppm relative to control; format: functional; parameters: scale not given: the % may be the effect or the level left
Cnaphalocrocis medinalis [11] = assay: Antifeedant activity against fourth-instar of Cnaphalocrocis medinalis in IR20 rice plant leaf at 12 ppm after 4 days; format: functional, organism-based
Cnaphalocrocis medinalis [12] = assay: Reduction of fecundity in third-instar of Cnaphalocrocis medinalis in IR20 rice plant leaf at 6 ppm relative to control; format: functional; parameters: scale not given: the % may be the effect or the level left
Cnaphalocrocis medinalis [13] = assay: Reduction of larval weight gain in third-instar of Cnaphalocrocis medinalis in IR20 rice plant leaf at 12 ppm after 48 hr (reference value: 23.7 mg); format: functional
Cnaphalocrocis medinalis [14] = assay: Antifeedant activity against fourth-instar of Cnaphalocrocis medinalis in IR20 rice plant leaf assessed as leaf scraped at 12 ppm after 24 hr; format: functional
Cnaphalocrocis medinalis [15] = assay: Reduction of egg production in third-instar of Cnaphalocrocis medinalis in IR20 rice plant leaf assessed as oviposition deterrence index at 6 ppm relative to control; format: functional; parameters: scale not given: the % may be the effect or the level left
Cnaphalocrocis medinalis [16] = assay: Reduction of larval weight gain in third-instar of Cnaphalocrocis medinalis in IR20 rice plant leaf at 6 ppm after 48 hr (reference value: 23.7 mg); format: functional
Cnaphalocrocis medinalis [17] = assay: Reduction of egg production in third-instar of Cnaphalocrocis medinalis in IR20 rice plant leaf assessed as oviposition deterrence index at 12 ppm relative to control; format: functional; parameters: scale not given: the % may be the effect or the level left
Cnaphalocrocis medinalis [18] = assay: Antifeedant activity against fourt-instar of Cnaphalocrocis medinalis in IR20 rice plant leaf assessed as leaf scraped at 1.5 ppm after 24 hr; format: functional
Cnaphalocrocis medinalis [19] = assay: Reduction of larval normal weight gain time in third-instar of Cnaphalocrocis medinalis in IR20 rice plant leaf at 6 ppm after 25 days (reference value: 23.5 +/- 0.56 days); format: functional

For `CC(C)=CC(=O)C[C@@H](C)[C@H]1CC[C@@]2(C)[C@@H]3CC[C@@H]4[C@@]5(CC(=O)OC[C@@]4(C)C(=O)O)C[C@@]35CC[C@]12C` [BEDDOMEILACTONE], which Activity (Cnaphalocrocis medinalis [1]) is on record?
Its Activity is 12.1 mg.

And the Time (Cnaphalocrocis medinalis [2])?
The Time was 48.3 days.

What about the Activity (Cnaphalocrocis medinalis [3]) of the same compound?
Its Activity is 80%.

And the Activity (Cnaphalocrocis medinalis [4])?
The Activity was “Active”.

And the Time (Cnaphalocrocis medinalis [5])?
Its Time is 37.2 days.

And the Activity (Cnaphalocrocis medinalis [6])?
The Activity was “Active”.

And the Activity (Cnaphalocrocis medinalis [7])?
The Activity was 39%.

And the Activity (Cnaphalocrocis medinalis [8])?
Its Activity is 13.6 mg.

And the Activity (Cnaphalocrocis medinalis [9])?
Its Activity is “Active”.

And the Activity (Cnaphalocrocis medinalis [10])?
Its Activity is 3%.

What about the Activity (Cnaphalocrocis medinalis [11]) of the same compound?
Its Activity is “Active”.

What about the Activity (Cnaphalocrocis medinalis [12]) of the same compound?
Its Activity is 19%.

And the Activity (Cnaphalocrocis medinalis [13])?
Its Activity is 7.2 mg.

And the Activity (Cnaphalocrocis medinalis [14])?
The Activity was 0.87 cm2.

What about the Activity (Cnaphalocrocis medinalis [15]) of the same compound?
Its Activity is 60%.

And the Activity (Cnaphalocrocis medinalis [16])?
The Activity was 10.2 mg.

What about the Activity (Cnaphalocrocis medinalis [17]) of the same compound?
The Activity was 83%.

What about the Activity (Cnaphalocrocis medinalis [18]) of the same compound?
The Activity was 8.97 cm2.

What about the Time (Cnaphalocrocis medinalis [19]) of the same compound?
Its Time is 39.2 days.
